Measured values reported in ChEMBL document CHEMBL1159155, “An ether-based peptide analog as c-AMP-dependent protein kinase inhibitor/substrate” (Bioorg Med Chem Lett, 1994).
pKd, pKi: −log10 of the molar value. Non-standard residues stand in square brackets, D forms with d. Residues, ends and D or L forms follow the SMILES beside them. *: point of attachment. Bpa = N[C@@H](Cc1ccc(C(=O)c2ccccc2)cc1)C(=O)O; Npys = O=[N+]([O-])c1cccnc1S*; X1 = CC(C)CCOC[C@H](CO)N*

Experiments:
[1] = organism: Bos taurus; test: Affinity for bovine heart cAMP-dependent protein kinase
[2] = organism: Bos taurus; test: Activity against bovine heart cAMP-dependent protein kinase
[3] = Inhibition of bovine heart cAMP-dependent protein kinase (PKA); parameters: species or system Bos taurus

| Compound | Km [1] | Vmax [2] | pKi [3] | pKd [3] | Vmax [1] |
| --- | --- | --- | --- | --- | --- |
| CC(C)C[C@H](NC(=O)[C@H](CSSc1ncccc1[N+](=O)[O-])NC(=O)[C@H](C)NC(=O)[C@H](CCCN=C(N)N)NC(=O)[C@H](CCCN=C(N)N)NC(=O)[C@@H](N)CC(C)C)C(=O)NCC(=O)O (H-LRRAC(Npys)LG-OH) |  |  |  | 4.40 |  |
| CC(C)C[C@H](NC(=O)[C@H](Cc1ccc(C(=O)c2ccccc2)cc1)NC(=O)[C@H](C)NC(=O)[C@H](CCCN=C(N)N)NC(=O)[C@H](CCCN=C(N)N)NC(=O)[C@@H](N)CC(C)C)C(=O)NCC(=O)O (H-LRRA[Bpa]LG-OH) |  |  |  | 3.96 |  |
| H-LRRAALG-OH |  |  |  | 3.31 |  |

The next lines start with the values.

| Km [1] | Vmax [2] | pKi [3] | pKd [3] | Vmax [1] | Compound |
| --- | --- | --- | --- | --- | --- |
| 108 µM | 0.107 µM/min/mg | 3.92 |  |  | CC(C)CCOC[C@H](CO)NC(=O)[C@H](C)NC(=O)[C@H](CCCN=C(N)N)NC(=O)[C@H](CCCN=C(N)N)NC(=O)[C@@H](N)CC(C)C (H-LRRA-X1) |
| 4.6 µM |  |  | 3.60 | 0.38 µM/min/mg | CC(C)C[C@H](NC(=O)[C@H](CO)NC(=O)[C@H](C)NC(=O)[C@H](CCCNC(=N)N)NC(=O)[C@H](CCCNC(=N)N)NC(=O)[C@@H](N)CC(C)C)C(=O)NCC(=O)O [KEMPTIDE] |
